US20260159536A1, “AKR1C3-ACTIVATED DNA ALKYLATING AGENT, AND MEDICAL APPLICATION THEREOF” (ASCENTAWITS PHARMACEUTICALS, LTD., priority 2021, published 2026)

What was measured:
[1] = Chiral stability under long-term and accelerated storage conditions; format: physicochemical
Protocol: Isomer stability under long-term and accelerated conditions was studied.
Compound A and isomers A-P1 and A-P2 were investigated for traits and isomeric stability at −20±5° C., 5° C.±3° C., 25° C.±2° C. (60%±5% RH) and 40° C.±2° C.

[2] = test system: HuPrime model PA1222 human pancreatic cancer; assay: In vivo pharmacodynamics, pancreatic cancer PA1222 PDX model; details: for Tumor volume: 120 mg/kg i.p.
Protocol: The test was divided into groups of test drug Gemcitabine 120 mg/kg group, test drug Compound A 10 mg/kg and 7.5% anhydrous ethanol+7.5% polyoxyethylene (35) castor oil+85% glucose injection DSW (pH 7.4) vehicle control group, a total of 3 groups, with 5 mice per group. […] Test drug Gemcitabine (Gemcitabine) 120 mg/kg group was administered intraperitoneally, once a week for three consecutive weeks.

P-gp = target: T1, P-gp (Homo sapiens, UniProt P08183); assay: P-gp substrate evaluation, MDCKII-MDR1 penetration test with or without Verapamil; format: in vitro ADME; details: Verapamil 0 μM
T1 construct: expressed in transfected cells; host or cells: MDCKII-MDR1 cells
T1 sequence (P08183 whole entry): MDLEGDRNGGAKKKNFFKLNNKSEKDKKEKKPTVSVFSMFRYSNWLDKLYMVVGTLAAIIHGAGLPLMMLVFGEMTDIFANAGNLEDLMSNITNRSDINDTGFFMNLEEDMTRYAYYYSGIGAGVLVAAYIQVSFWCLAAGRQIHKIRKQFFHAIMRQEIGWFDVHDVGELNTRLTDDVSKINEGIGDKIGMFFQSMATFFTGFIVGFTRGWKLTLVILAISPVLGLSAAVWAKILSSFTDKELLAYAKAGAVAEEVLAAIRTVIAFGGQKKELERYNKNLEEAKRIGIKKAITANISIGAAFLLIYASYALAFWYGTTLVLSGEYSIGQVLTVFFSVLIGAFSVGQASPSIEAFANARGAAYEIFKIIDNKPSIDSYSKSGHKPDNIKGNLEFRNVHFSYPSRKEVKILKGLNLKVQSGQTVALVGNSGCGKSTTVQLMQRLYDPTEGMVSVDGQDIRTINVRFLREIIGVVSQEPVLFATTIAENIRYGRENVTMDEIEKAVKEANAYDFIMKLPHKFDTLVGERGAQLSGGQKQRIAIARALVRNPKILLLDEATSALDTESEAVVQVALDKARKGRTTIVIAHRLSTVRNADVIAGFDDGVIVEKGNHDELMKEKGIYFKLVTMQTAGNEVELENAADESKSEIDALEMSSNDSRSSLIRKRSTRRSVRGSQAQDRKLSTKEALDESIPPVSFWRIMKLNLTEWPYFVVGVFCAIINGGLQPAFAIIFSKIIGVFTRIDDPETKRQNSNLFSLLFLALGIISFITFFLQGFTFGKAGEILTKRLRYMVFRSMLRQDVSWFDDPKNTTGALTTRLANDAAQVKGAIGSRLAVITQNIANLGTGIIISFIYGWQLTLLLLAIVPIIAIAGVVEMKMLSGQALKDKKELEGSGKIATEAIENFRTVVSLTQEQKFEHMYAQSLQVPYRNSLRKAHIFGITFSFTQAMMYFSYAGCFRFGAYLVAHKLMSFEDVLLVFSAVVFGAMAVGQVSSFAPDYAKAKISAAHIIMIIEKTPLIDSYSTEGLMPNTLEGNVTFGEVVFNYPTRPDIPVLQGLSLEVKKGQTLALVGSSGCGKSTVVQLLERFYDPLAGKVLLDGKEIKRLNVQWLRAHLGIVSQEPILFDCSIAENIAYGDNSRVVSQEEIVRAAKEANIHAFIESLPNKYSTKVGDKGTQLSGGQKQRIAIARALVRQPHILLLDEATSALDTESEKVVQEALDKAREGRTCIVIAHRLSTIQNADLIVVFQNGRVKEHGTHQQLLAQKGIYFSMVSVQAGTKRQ
Protocol: The conditions of the incubator were set as 37° C., 5% CO2, and 95% of the relative humidity.
After that, the MDCKII-MDR1 cells can be used for the penetration test.
(1) MDCKII-MDR1 transwell culture plate was taken out from the incubator.
(6) The upper and lower transportations were pooled and then incubated at 37° C. for 2 h.
After the sample tubes were vortexed for 10 min, and centrifuged at 3220 g for 30 min. […] Each sample was adopted to the three parallel incubation.
Efflux Ratio was calculated by the following formula: […]
Recovery was calculated by the following formula: […]

[3] = test system: human lung cancer NCI-H460 cells; assay: In vivo pharmacodynamics, NCI-H460 subcutaneous xenograft model; parameters: species or system BALB/c nude mice; details: for Tumor volume: 100 mg/kg i.p.
[4] = 25° C. ± 2° C./60% ± 5% RH, 1 month
[5] = 25° C. ± 2° C./60% ± 5% RH, 3 months
[6] = 40° C. ± 2° C./75% ± 5% RH, 1 month

O=[N+]([O-])c1ccc(C(OP(=O)(N2CC2)N2CC2)C(F)(F)F)cc1Oc1ccc(-c2ccc(F)cc2)c(F)c1 (single isomer, unassigned) [A-P1]
Isomer peak A-P1 ([1]; 0 month): 99.92%
Isomer peak A-P2 ([1]; 0 month): 0.08%
Isomer peak A-P1 ([1]; 5° C. ± 3° C., 1 month): 99.92%
Isomer peak A-P2 ([1]; 5° C. ± 3° C., 1 month): 0.08%
Isomer transformation ([1]; 5° C. ± 3° C., 1 month): 0.00%
Isomer peak A-P1 ([1]; 5° C. ± 3° C., 3 months): 99.92%
Isomer peak A-P2 ([1]; 5° C. ± 3° C., 3 months): 0.08%
Isomer transformation ([1]; 5° C. ± 3° C., 3 months): 0.00%
Isomer peak A-P1 [1, 4]: 99.92%
Isomer peak A-P2 [1, 4]: 0.08%
Isomer transformation [1, 4]: 0.00%
Isomer peak A-P1 [1, 5]: 99.92%
Isomer peak A-P2 [1, 5]: 0.08%
Isomer transformation [1, 5]: 0.00%
Isomer peak A-P1 [1, 6]: 99.91%
Isomer peak A-P2 [1, 6]: 0.09%
Isomer transformation [1, 6]: 0.01%
colour and chirality after storage ([1]; −20° C., 5° C., 25° C./60% RH 3 months, 40° C./75% RH 1 month): essentially no change
Isomer peak A-P1 ([1]; −20 ± 5° C., 3 months): 99.92%
Isomer peak A-P2 ([1]; −20 ± 5° C., 3 months): 0.08%
Isomer transformation ([1]; −20 ± 5° C., 3 months): 0.00%

Nc1ccn([C@@H]2O[C@H](CO)[C@@H](O)C2(F)F)c(=O)n1 [Gemcitabine, reference compound]
Tumor volume ([2]; Day 0): 111.91 mm^3
Tumor volume ([2]; Day 3): 136.17 mm^3
Tumor volume ([2]; Day 7): 153.75 mm^3
Tumor volume ([2]; Day 10): 157.55 mm^3
Tumor volume ([2]; Day 14): 147.44 mm^3
Tumor volume ([2]; Day 17): 136.71 mm^3
Tumor volume ([2]; Day 21): 138.01 mm^3
Tumor volume ([2]; Day 24): 153.69 mm^3
Tumor volume ([2]; Day 28): 166.11 mm^3
Relative tumor volume (x ± S) ([2]; 120 mg/kg, QWx3, i.p., Day 28): 1.49 ± 0.19
T/C (%) ([2]; 120 mg/kg, QWx3, i.p., Day 28): 42.83%
TGI (%) ([2]; 120 mg/kg, QWx3, i.p., Day 28): 57.17%
Tumor volume (x ± S) ([2]; 120 mg/kg, QWx3, i.p., Day 28): 166.11 ± 24.40

COc1cc2nc(N3CCN(C(=O)c4ccco4)CC3)nc(N)c2cc1OC [Prazosin]
Efflux Ratio (P-gp): 2.90

N.N.O=C([O-])C1(C(=O)[O-])CCC1.[Pt+2] [Carboplatin, reference compound]
Tumor volume ([3]; Day 7): 145.46 mm^3
Tumor volume ([3]; Day 10): 262.15 mm^3
Tumor volume ([3]; Day 14): 409.97 mm^3
Tumor volume ([3]; Day 17): 529.44 mm^3
Tumor volume ([3]; Day 21): 761.56 mm^3
Tumor volume ([3]; Day 24): 960.42 mm^3
Tumor volume ([3]; Day 28): 1073.28 mm^3
Tumor volume ([3]; Day 31): 1230.93 mm^3
Tumor volume ([3]; Day 35): 1577.99 mm^3
Relative tumor volume (x ± S) ([3]; 100 mg/kg, QWx3, i.p., Day 31): 8.58 ± 1.16
T/C (%) ([3]; 100 mg/kg, QWx3, i.p., Day 31): 64.81%
TGI (%) ([3]; 100 mg/kg, QWx3, i.p., Day 31): 35.19%
Tumor volume (x ± S) ([3]; 100 mg/kg, QWx3, i.p., Day 31, in mm³ (unit assumed)): 1230.93 ± 258.17
